Data reported in patent publication US20160281089A1, “PREVENTION OF VIRAL INFECTIVITY” (priority 2005, published 2016).

What was measured:
HIV virions [1] = assay: ODN-mediated cleavage of viral RNA in intact HIV virions (real-time PCR, RT-PCR, agarose gel); type: biochemical; conditions: 0.5 μM ODN, intact HIV virions, RPMI medium, 6 hours
SFFV = assay: NIH 3T3 cells infected with ODN-pretreated SFFV; type: cell-based; conditions: three days post-infection, real-time RT-PCR
From the text: As next step we investigated the antiviral effect of ODNs by testing pre-treated virions for residual infectivity as has been described before for HIV particles. SFFV particles were pretreated with ODN M or its variants and used to infect NIH 3T3 cells. After three days RNA was extracted from infected cells and from the supernatants and SFFV was quantified by real-time RT-PCR and analysis of amplification products (FIG. 9b).
b. NIH 3T3 cells were infected with SFFV pretreated with various ODNs. After three days the cells and supernatants were harvested and analyzed for SFFV RNA levels by quantitative real time RT-PCR (top) and RT-PCR (bottom) using GAPDH for comparison.

HIV virions [2] = assay: Infectivity of ODN-pre-incubated HIV virions in C81-66/45 cells; type: cell-based; conditions: for binding/uptake of pre-treated virions by host cells: pre-incubation 4 hours, HIV RNA in infected cells 1 hour post-infection
Description: As a next step we investigated the antiviral effect of ODNs by testing the infectivity of treated virions in cell culture studies. We used ODN A, ODN T, as PPT and ODN CO. 2×10^5 C81-66/45 cells were infected with virions pre-incubated with different ODNs at 0.01 MOI for 1, 2 or 4 hours prior to infection. RNA was extracted from infected cells and HIV replication was analysed by real-time PCR 3 days post-infection.
To test the specificity of suppression of viral replication, the effect of ODN A on the infectivity of virions was compared with control ODNs. Virions were pre-treated with the ODNs and HIV replication in infected cells was analysed by real-time PCR, 5 days (FIG. 6A) or 20 days post-infection (FIG. 6B) and by measuring p24 production in the supernatant of the infected cells (FIG. 6C).
(A) HIV virions were incubated with 0.5 μM of ODNs for 1, 2 or 4 hours. C81-66/45 cells were infected with pre-incubated virions, at 0.01 MOI. RNA was extracted from infected cells and HIV replication was analysed by real-time PCR, 3 days post-infection (p.i.).
(B) The same experiment as in (A) was performed with ODN T, ODN CO, asPPT and ODN A pre-treated virions.
(D) C81-66145 cells were infected with virions pre-incubated with 0.5 or 5 μM of ODNs for 4 h, at an MOI of 1. RNA was extracted from infected cells and HIV replication was analysed by real-time PCR, 3 days post-infection.
(E) C81-66/45 cells were infected with virions pre-incubated with ODN A and ODN Sc for 4 h, at an MOI of 0.01. RNA was extracted from infected cells and HIV replication was analysed by real-time PCR, 1 h and 24 h post-infection. (F) The same experiment as in (E) was performed except for using ODN T, ODN B and ODN A, 1 hour post-infection.
C81-66/45 cells were infected with virions pre-incubated with ODN A, ODN T, ODN CO or as PPT for 4 h, at MOI of 0.01. RNA was extracted from infected cells and HIV replication was analysed by real-time PCR, 5 days p.i. (A), and 20 days p.i. (B); by measuring p24 production in the medium of the infected cells (C) or by RT-PCR, 11 days p.i. (D).

[3] = target: T1, RNase H activity of HIV RT/RNaseH (Human immunodeficiency virus type 1 group M subtype B, UniProt P04585); design: the HIV RT/RNase H is a heterodimer of p66 and p51 with and without RNase H; endogenous in cells; host or cells: permeabilized HIV virions (virion-associated enzyme); panel B has added recombinant RT/RNaseH at 0.05 units/µl; conditions: previously described; cited from earlier work
[4] = target: T1, RNase H activity of HIV RT/RNaseH; assay: Permeabilized HIV virions with ODN A and Illimaquinone, viral RNA degradation by real-time PCR; conditions: 150 μM Illimaquinone, 50 nM ODN A, 0.1% NP-40 permeabilized virions, 30 min 37° C., without added RT/RNaseH

With “TTTGGGGGGTTCTTCCTCCTTTCCTTTTTCGCCCGTCCGTTGCGTTGATTTTTT (chemistry not given here) [ODN Sc, reference compound]” the “amount of undigested viral RNA (real-time PCR, primers covering PPT region)” value (from here on “amount of undigested viral RNA”) (HIV virions [1]) was “less efficient cleavage of the viral RNA”.
With “TCTTTTTGCGCGCTTTGTTTGTTTTTTCTTTCATTCCCCCCTTTTTCT (chemistry not given here) [ODN CG, ODN M variant with a triple nucleotide change in the second strand (SFFV tests)]” the “amount of undigested viral RNA” value (HIV virions [1]) was “antiviral activity similar to ODN A” and the “SFFV RNA in infected cells and supernatant” value (SFFV) was “clearly less efficient”.
With “AAAAGAAAAGGGGGGACTGGTTGGGTTTTCCCTTCCAGTCCCCCCTTTTCTTTT (chemistry not given here) [ODN T, passenger strand fully complementary to the antisense strand]” the “amount of undigested viral RNA” value (HIV virions [1]) was “less efficient cleavage of the viral RNA”, the “binding/uptake of pre-treated virions by host cells” value (HIV virions [2]) was “uptake similar to ODN A” and the “HIV replication in infected cells (real-time PCR)” value (HIV virions [2]; virions pre-incubated 4 hours with 0.5 μM ODN, 0.01 MOI, 3 days post-infection) was “low but detectable levels”.
In the case of “TTTTCTTTTGGGGGGACTGGTTGGGTTTTCCCTTCCAGTCCCCCCTTTTCTTTT (chemistry not given here) [ODN H, triple substitution in the passenger strand]”, the “amount of undigested viral RNA” value (HIV virions [1]) is reported as “less efficient cleavage of the viral RNA”.
For “TCTTTTTGGGGGGAATGTTTGTTTTTTCTTTCATTCCCCCCTTTTTCT (DNA, backbone and methylation of C not given here) [ODN S, ODN M variant, two nucleotide changes in the second strand]”, the “SFFV RNA in infected cells and supernatant” value (SFFV) was “clearly less efficient”.
For “TTTTCTTTTGCGCGCTTTGGTTGGGTTTTCCCTTCCAGTCCCCCCTTTTCTTTT (chemistry not given here) [ODN NT, triple substitution in the passenger strand at site complementary to CCCCCC]”, the “amount of undigested viral RNA” value (HIV virions [1]) was “less efficient cleavage of the viral RNA”.
For C=C1CCC[C@H]2[C@](C)(CC3=C(O)C(=O)C=C(OC)C3=O)[C@@H](C)CC[C@]12C [Illimaquinone], the “inhibition of RNase H activity of HIV RT/RNaseH” value [3] is listed as “specifically inhibit the RNase H activity” and the “ODN A-mediated viral RNA cleavage in presence of Illimaquinone” value [4] is listed as “failed to induce cleavage”.
In the case of “TTTCTTTTGGGGGGTTTGGTTGGGTTTTCCCTTCCAGTCCCCCCTTTTCTTT (chemistry not given here) [ODN B, one nucleotide removed from both 5′ and 3′ ends of ODN A]”, the “amount of undigested viral RNA” value (HIV virions [1]) is reported as “less efficient cleavage of the viral RNA” and the “binding/uptake of pre-treated virions by host cells” value (HIV virions [2]) is reported as “uptake similar to ODN A”.
